The structures appear in SMILES notation. Marks after values point to notes of the source that are not given here.

One data set has as its target Tau (Homo sapiens, UniProt P10636). Put plainly: Tau competition binding in human AD brain homogenate with 18F-labeled Tau binder. Also on record: High affinity to Tau (IC50 in AD brain homogenate): key: −: poor; ∘: moderate; +: good; ++: very good; +++: excellent. The settings on record: determined with non-radioactive F-1, F-2, F-3a; for IC50: human AD brain homogenate, read-out: IC50 for tau binding in AD brain homogenate. On the procedure:
(§1) 20 μg of human Alzheimer disease brain homogenate was incubated with a dilution series of each test compound (1000 to 0.06 nM) in the presence of 800 Bq of ^18F-labeled Tau binder. The samples were shaken at 110 rpm for 45 min at 37° C. Samples were then filtered through GF/B 96 well filter plates and washed twice with 300 μL assay buffer (PBS containing 0.1% BSA and 2% DMSO). Thereafter, filter plates were sealed and a Fuji Film Imaging Plate (BAS-SR2025) was placed on top. The imaging plate was analyzed after overnight exposition using a Fuji Film BAS-5000. Non-specific signal was determined with samples containing ^18F-labeled Tau-reference binder in the presence of assay buffer without brain substrate and competitor. […] The unblocked ^18F-labeled Tau-binder signal was defined as total binding. IC50 values were calculated by Prism V6 (GraphPad) setting total binding to 100%.

Another data set concerns the target amyloid-beta (Homo sapiens, UniProt P05067). Put plainly: Binding affinity to amyloid-beta in AD brain homogenate. The settings on record: non-radioactive derivatives; for IC50: human AD brain homogenate. As to the method: as §1, with “beta-amyloid” for “Tau”, “beta-amyloid” for “Tau-reference”, “beta-amyloid binder” for “Tau-binder”
The next data set has as its target T1, MAO A (Mus musculus, UniProt Q64133).
T1 construct: from tissue; host or cells: whole mouse brain homogenate
T1 sequence (Q64133 1-526): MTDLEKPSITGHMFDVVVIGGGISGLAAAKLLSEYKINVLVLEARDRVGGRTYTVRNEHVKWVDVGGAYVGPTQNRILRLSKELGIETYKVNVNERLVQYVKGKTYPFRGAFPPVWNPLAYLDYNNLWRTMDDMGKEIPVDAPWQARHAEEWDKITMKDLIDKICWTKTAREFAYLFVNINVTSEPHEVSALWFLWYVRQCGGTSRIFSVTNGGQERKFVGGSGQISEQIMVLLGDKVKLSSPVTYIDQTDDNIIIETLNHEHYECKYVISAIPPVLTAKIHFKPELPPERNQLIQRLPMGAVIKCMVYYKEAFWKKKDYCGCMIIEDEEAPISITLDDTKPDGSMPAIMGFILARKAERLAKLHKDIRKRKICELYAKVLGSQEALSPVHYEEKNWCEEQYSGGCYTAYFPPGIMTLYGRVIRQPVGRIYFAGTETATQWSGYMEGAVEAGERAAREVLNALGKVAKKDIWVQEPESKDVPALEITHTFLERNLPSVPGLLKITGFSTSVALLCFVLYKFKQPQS
Briefly: MAO A 18F-FEH competition assay in mouse brain homogenate. In kind it is binding. Set-up: Low affinity to MAO A (IC50 in mouse brain homogenate): key to the marks not given beside the values. The settings on record: for IC50: 18F-FEH competition, read-out: IC50 MAO A in mouse brain homogenate.

Data set [1] is described as follows: PK studies in healthy mice (PET). For Good brain uptake: key: −: poor; ∘: moderate; +: good; ++: very good; +++: excellent. For Low or minor de-fluorination: key: −: poor; ∘: moderate; +: good; ++: very good; +++: excellent. For Low retention in healthy brain: key: −: poor; ∘: moderate; +: good; ++: very good; +++: excellent. In kind it is in vivo, NMRI mice. Set-up: Good brain uptake / Fast washout from healthy brain: key: −: poor; ∘: moderate; +: good; ++: very good; +++: excellent. As to conditions: for Low retention in healthy brain / Good brain uptake / Low or minor de-fluorination / Fast washout from healthy brain: grade; for Low retention in healthy brain: healthy mice 60 min after iv injection; for Good brain uptake: healthy mice after iv injection; for Low or minor de-fluorination: bone uptake in healthy mice at 60 min; for Fast washout from healthy brain: healthy mice; for De-fluorination in mice (in words): mouse, in vivo. On the procedure:
NMRI mice (weight range 25-35 g) were injected intravenously with the ^18F-labeled compounds. Up to 150 μL of 1×PBS solution with 10%-15% EtOH or dilution medium ([…]) containing the ^18F-labeled compound (2-10 MBq) were injected. Anesthesia with isoflurane was induced before injection of the tracer and maintained during the image acquisition period. PET scans were performed using a SIEMENS INVEON small animal PET/CT scanner (Siemens, Knoxville, Tenn.). PET acquisition was started immediately before the radioactive dose was injected into the animal through the tail vein. Images were generated as dynamic scans for 60 minutes.
The peak uptake in the brain was set to 100% and washout curves were generated to evaluate the clearance of the activity from the normal brain (FIG. 2).

Tau, sequence (P10636 623-708 limits assumed): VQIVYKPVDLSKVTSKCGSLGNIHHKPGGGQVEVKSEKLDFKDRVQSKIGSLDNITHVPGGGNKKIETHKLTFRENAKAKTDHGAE
amyloid-beta, sequence (P05067 672-711 limits assumed): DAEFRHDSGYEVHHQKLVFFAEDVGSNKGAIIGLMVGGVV

For `[18F]c1ccc(-c2ccc3c(c2)[nH]c2ccncc23)cn1` [^18F-1], the IC50 (in general, the concentration that inhibits the measured activity by half) was less than 0.002 µM on Tau, more than 1 µM on amyloid-beta and 0.022 µM at MAO A (non-radioactive derivatives). The “Low retention in healthy brain” value in data set [1] is reported as “−”. Further, the Good brain uptake entry in data set [1] is recorded as “++”.

With `[18F]c1cc(-c2ccc3c(n2)[nH]c2ccncc23)ccn1` [^18F-3a], the “High affinity to Tau (IC50 in AD brain homogenate)” value on Tau (grade) is on record as “+++”. Further, at Tau, the IC50 was less than 0.002 µM. Further, the “Low affinity to amyloid-beta (IC50 in AD brain homogenate)” value at amyloid-beta (grade) was “+++^a)”. Also, on amyloid-beta, the IC50 was more than 1 µM. Also, the IC50 at MAO A (non-radioactive derivatives) was 1.4 µM. The “Low affinity to MAO A (IC50 in mouse brain homogenate)” value at MAO A (grade, non-radioactive derivatives) is given as “+++”. On MAO A (whole mouse brain homogenate), the “Fold higher MAO A IC50 than compound 18F-1” value is reported as 64 fold and the “Fold higher MAO A IC50 than compound 18F-2” value is listed as 3 fold. Besides, in data set [1], the “Low or minor de-fluorination” value is given as “+++”, the “Fast washout from healthy brain” value was “++”, the “Low retention in healthy brain” value is given as “++” and the Good brain uptake entry is “++”. Also, the “De-fluorination in mice (in words)” value in data set [1] is “No de-fluorination”. In data set [1] (mice), the “Fold faster washout from healthy brain than 18F-1” value is recorded as 1.6 fold, the “Fold lower long-term retention in healthy brain than 18F-1” value stood at 2.7 fold and the “Fold lower long-term retention in healthy brain than 18F-2” value was 2 fold.

In the case of `[18F]c1ccc(-c2ccc3c(n2)[nH]c2ccncc23)cn1` [^18F-2], on Tau, the IC50 was less than 0.002 µM. The IC50 at amyloid-beta was more than 1 µM. The IC50 at MAO A (non-radioactive derivatives) turned out to be 0.475 µM. For the same compound, in data set [1], the “Low or minor de-fluorination” value is on record as “−”, the “Fast washout from healthy brain” value is recorded as “++”, the Good brain uptake entry is recorded as “++” and the “De-fluorination in mice (in words)” value is “De-fluorination in mice was found”.

For the origin of these results see US10835624B2, “Compounds for imaging Tau protein aggregates” (AC IMMUNE S.A., priority 2016, dated 2020).
